Data as given in patent US20040228844A1, “Method for controlling harmful plant-parasitic nematodes” (priority 2003, published 2004).

Legend:
[1] = test system: Meloidogyne incognita; assay: Test Example 1: root-knot damage of cucumber seedlings in nematode-infested soil; details: 20 kg per 1000 m^2, soil mixing, 50 days after transplantation, scale 0 (no root-knots) to 5 (dead), average per 10 plants
Experimental: To 5 kg of nematode-infested soil (nematode density: 2255 nematodes per 20 g (investigation method: Bellman's method)) in which Meloidogyne incognita seriously grew was applied each (100 mL) of the test solutions diluted at given concentrations: and then the resulting soil was thoroughly mixed. […] (diameter: about 3 mm), 500 g of each of the soil to which each test solution was applied and mixed was placed. Cucumber seedlings (14 days after sowing, 2 plants per cup, 5 replications) were transplanted in the cup, which contained each treated soil. After transplantation, the plants were left in a glass greenhouse.
The degree of root-knot damages was evaluated according to the following criteria:
5: The plant is withered and dead due to parasitism of nematodes.
4: A number of root-knots, which range to form-large root-knots, are observed on the entire roots.
3: Root-knots are observed on the entire roots, and large root-knots being partly formed.
2: Formation of root-knots is partly observed on the root, and some of them ranging, but no large root-knot is observed.
1: A little formation of root-knots is observed.
0: No formation of root-knots is found.

[2] = test system: Meloidogyne incognita; assay: Test Example 2: gall control on cucumber seedlings in nematode-infested soil; format: in vivo; details: 20 kg /1000 m^2, 32 days after transplantation, (C−S)×100/C
Experimental: To 3 kg of the Meloidogyne incognita-infested soil was applied each (100 mL) of the test solutions diluted at given concentrations and then the resulting soil was thoroughly mixed.
The gall control value was calculated by the following equation:
Gall control value=(C−S)×100/C
wherein C is an average gall number per plant in a non-treated group, and S is an average gall number per plant in a treated group.

CSCC[C@H](N)C(=O)O [Component A Agent, methionine]
Average Degree of Root-Knots Damages [1]: 3.2 | Gall Control Value [2]: 44
